From patent US20110059909A1, “METHODS FOR TREATING INFLAMMATORY DISORDERS” (priority 2004, published 2011)
Entries after “also recorded” stand apart in the source; their conditions may differ.

How the values were obtained:
[1] = test system: ERK1/2; assay: ERK1/2 activation (phospho-ERK1/2 immunoblot) in primary astrocytes; format: cell-based, rat
Protocol: (§1) For iNOS protein, the cells were washed with cold Tris buffered saline (TBS; 20 mM Trizma base, and 137 mM NaCl, pH 7.5), lysed in 1×SDS sample loading buffer (62.5 mM Trizma base, 2% w/v SDS, 10% glycerol), following sonication and centrifugation at 15,000×g for 5 min, the supernatant was used for the iNOS western immunoblot assay. The protein concentration of samples was determined with the detergent compatible protein assay reagent (Bio-Rad Laboratories, CA) using bovine serum albumin (BSA) as the standard. Sample was boiled for 3 min with 0.1 volumes of 10% β-mercaptoethanol and 0.5% bromophenol blue mix. Fifty μg of total cellular protein was resolved by electrophoresis on 8 or 12% polyacrylamide gels, electro-transferred to polyvinylidene difluoride (PVDF) filter and blocked with Tween 20 containing Tris-buffered saline (TBST; 10 mM Trizma base-pH 7.4, 1% Tween 20, and 150 mM NaCl) with 5% skim milk. After incubation with antiserum against iNOS (BD PharMingen, CA), rat GalT-2 (Abjent Inc., CA), H-Ras (Upstate Biotechnology, CA), GFAP (Santa Cruz Biotech, CA), or phospho-specific ERK1/2 (Cell signaling Tech Inc., MA), or pIκ-B (Signal Transduction), in PVDF buffer for 2 h at room temperature, the filters were washed 3 times with TBST buffer and then incubated with horseradish peroxidase conjugated anti-rabbit or mouse IgG for 1 h. The membranes were detected by autoradiography using ECL-plus (Amersham Pharmacia Biotech) after washing with TBST buffer.

[2] = test system: NF-κB; assay: κB-repeat luciferase reporter gene assay; format: cell-based, rat
Protocol: Dominant negative and constitutively active ras expression vector (pCMVrasN17 and pCMVrasv12) and κB repeat luciferase reporter construct (pNF-κB-Luc) were purchased from BD Biosciences. 3×10^5 cells/well were cultured in 6-well plates for one day before the transfection. Transfection was performed with plasmid concentration constant (2.5 μg/transfection) and 8 μl of Fugene transfection reagent (Roche Molecular Biochemicals). 24 h after transfection, the cells were placed in serum free media for overnight. Following appropriate treatment, the cells were washed with phosphate buffered saline (PBS), scraped, and then resuspended with 100 μl of lysis buffer (40 mM of Tricine pH 7.8, 50 mM of NaCl, 2 mM of EDTA, 1 mM of MgSO4, 5 mM of dithiothreitol, and 1% of Triton X-100). After incubation at room temperature for 15 min with occasional vortexing, the samples were centrifuged. The luciferase and β-galactosidase activities were measured by using luciferase assay kit (Stratagene, CA) and β-gal assay kit (Invitrogen, CA) respectively. The emitted light and optical absorbance was measured using Spectra Max/Gemini XG (Molecular Device, CA) and SpectraMax 190 (Molecular Device).

[3] = test system: NF-κB; assay: NF-κB DNA binding, electrophoretic mobility shift assay; format: cell-based, rat
Protocol: Nuclear extracts from cells (1×10^7 cells) were prepared using a previously published method (Dignam et al., 1983) with slight modifications. Cells were harvested, washed twice with ice-cold TBS, and lysed in 400 μl of buffer A containing 10 mM KCl, 2 mM MgCl2, 0.5 mM dithiothreitol, protease inhibitor cocktail (Sigma), and 0.1% Nonidet P-40 in 10 mM HEPES, pH 7.9 for 10 min on ice. Following centrifugation at 5,000×g for 10 min, the pelleted nuclei were washed with buffer A without Nonidet P-40, and resuspended in 40 μl of buffer B containing 25% (v/v) glycerol, 0.42M NaCl, 1.5 mM MgCl2, 0.2 mM EDTA, 0.5 mM dithiothreitol, and Complete™ protease inhibitor cocktail (Roche) in 20 mM HEPES, pH 7.9 for 30 min on ice. The lysates were centrifuged at 15,000×g for 15 min and the supernatants containing the nuclear proteins were stored at −70° C. until use. Ten μg of nuclear proteins was used for the electrophoretic mobility shift assay for detection of NF-κB DNA binding activities. DNA-protein binding reactions were carried out at room temperature for 20 min in 10 mM Trizma base (pH 7.9), 50 mM NaCl, 5 mM MgCl2, 1 mM EDTA, 1 mM dithiothreitol, 1 μg poly (dI-dC), 5% (v/v) glycerol, and approximately 0.3 pmol of NF-κB probe (Santa Cruz Biotech) labeled with DIG-ddUTP using terminal deoxynucleotidyl transferase (Roche). […]

[4] = test system: IκB; assay: Phosphorylated IκB immunoblot of cytoplasmic extract; format: cell-based, rat; conditions: LPS/IFNγ
Protocol: as §1, with “After incubation with antiserum against iNOS (BD PharMingen, CA), rat GalT-2 (Abjent Inc., CA), H-Ras (Upstate Biotechnology, CA), GFAP (Santa Cruz Biotech, CA), or phospho-specific ERK1/2 (Cell signaling Tech Inc., MA), or pIκ-B (Signal Transduction), in PVDF buffer for 2 h at room temperature, the filters were washed 3 times with TBST buffer and then incubated with horseradish peroxidase conjugated anti-rabbit or mouse IgG for 1 h.” left out

[5] = test system: ERK1/2; assay: ERK1/2 activation at the lesion epicenter following SCI; format: in vivo, rat
[6] = test system: rat aortic vascular smooth muscle cells; conditions: cited from earlier work
[7] = test system: iNOS; assay: iNOS expression at the lesion epicenter following SCI
[8] = test system: GFAP; assay: GFAP expression (reactive astrogliosis) at the lesion epicenter following SCI

Molecule	Reversal of LY-mediated inhibition of TNFα-mediated ERK1/2 activation ([1]; LY 30 μM plus LacCer 10 μM)	Reversal of PD98059-mediated inhibition of TNFα-induced ERK1/2 activity ([1]; exogenous LacCer)	Reversal of PDMP-mediated inhibition of LPS/IFNγ-induced ERK1/2 phosphorylation ([1]; exogenous LacCer)	Reversal of PDMP-mediated inhibition of TNFα-induced ERK1/2 activity ([1]; exogenous LacCer)	Reversal of PDMP effect on κB-luciferase activity ([2]; exogenous LacCer)	Reversal of PDMP-mediated inhibition of NF-κB DNA binding activity ([3]; exogenous LacCer)	Levels of phosphorylated IκB when LacCer was added to PDMP ([4]; PDMP plus LacCer)	LPS/IFNγ-induced phosphorylation of ERK1/2 ([1]; pretreated 0.5 h, LPS/IFNγ 20 min)	TNFα-induced ERK1/2 phosphorylation ([1]; pretreated 0.5 h, TNFα 20 min)	LPS/IFNγ-induced κB-luciferase activity ([2]; PDMP 0.5 h before LPS/IFNγ)	NF-κB DNA binding activity ([3]; increasing doses of PDMP, LPS/IFNγ 45 min)	Phosphorylation of IκB ([4]; in the presence of PDMP)	Activated ERK1/2, double immunofluorescence ([5]; 24 h following injury)	Chronic ERK1/2 activation (immunoblot, pERK/ERK) ([5]; PDMP 20 mg/kg post-SCI)	IL-1β stimulated nitric oxide release [6]	iNOS mRNA (real time PCR) and protein expression ([7]; 12 h following SCI)	iNOS expression, double immunofluorescence ([7]; 24 h post-SCI)	GFAP, double immunofluorescence ([8]; 24 h post-SCI)	GFAP mRNA and protein expression ([8]; PDMP 20 mg/kg post-SCI)
Lactosylceramide [LacCer]	bypassed	not	reversed	reverse	effectively bypassed	reversed	increased	–	–	–	–	–	–	–	–	–	–	–	–
CCCCCCCCCC(=O)NC(CN1CCOCC1)C(O)c1ccccc1.Cl [PDMP, D-threo-1-Phenyl-2-decanoylamino-3-morpholino-1-propanol.HCl]	–	–	–	–	–	–	–	inhibited	inhibited	abolished	inhibited	Decreased	significantly attenuated	effectively attenuates	increased	markedly suppressed	significantly reduced	significantly reduced; also recorded: significantly attenuated	effectively attenuated
